Where two headings read alike, the source gives them in different places.
Test system: erythrocytes infected with 3D7 trophozoites
Assay type: cell-based, Plasmodium falciparum
Settings: 6 μM

## COc1ccc2c(c1)OC(O)(C(F)(F)C(F)(F)F)CC2=O (stereo not drawn) [MMV007839]
Av 1hr
  ESFG log2 ratio (+MMV007839/-MMV007839): 0.4045
  EVGG log2 ratio (+MMV007839/-MMV007839): 0.01776
  Erythrose 4-phosphate log2 ratio (+MMV007839/-MMV007839): -0.3514
  FAD log2 ratio (+MMV007839/-MMV007839): -0.08791
  FMN log2 ratio (+MMV007839/-MMV007839): -0.2425
  Farnesyl diphosphate log2 ratio (+MMV007839/-MMV007839): -0.0002912
  Folate log2 ratio (+MMV007839/-MMV007839): -0.2316
  Fructose-1-6-bisphosphate log2 ratio (+MMV007839/-MMV007839): 1.122
  Fructose-6-Phosphate log2 ratio (+MMV007839/-MMV007839): 0.08818
  GDP log2 ratio (+MMV007839/-MMV007839): -0.6846
  GDP-mannose log2 ratio (+MMV007839/-MMV007839): 0.01571
  GMP log2 ratio (+MMV007839/-MMV007839): -1.125
  GTP log2 ratio (+MMV007839/-MMV007839): -0.5732
  Geranylgeranyl pyrophosphate log2 ratio (+MMV007839/-MMV007839): -0.5786
  Gluconate log2 ratio (+MMV007839/-MMV007839): 0.1947
  Glucose-6-Phosphate log2 ratio (+MMV007839/-MMV007839): -0.1863
  Glutamate log2 ratio (+MMV007839/-MMV007839): 0.1005
  Glutamine log2 ratio (+MMV007839/-MMV007839): 0.7703
  Glutathione disulfide log2 ratio (+MMV007839/-MMV007839): 0.1943
  Glutathione log2 ratio (+MMV007839/-MMV007839): -0.1919
  Glyceraldehyde 3-phosphate log2 ratio (+MMV007839/-MMV007839): -0.7606
  Glycerone phosphate log2 ratio (+MMV007839/-MMV007839): 0.5926
  HLD log2 ratio (+MMV007839/-MMV007839): -0.3486
  HVDD log2 ratio (+MMV007839/-MMV007839): -0.6691
  Histidine log2 ratio (+MMV007839/-MMV007839): 0.5758
  Homoserine log2 ratio (+MMV007839/-MMV007839): 0.3097
  Hydroxy-L-proline log2 ratio (+MMV007839/-MMV007839): 0.2443
  Hypoxanthine log2 ratio (+MMV007839/-MMV007839): 0.3704
  IDP log2 ratio (+MMV007839/-MMV007839): -0.1758
  IMP log2 ratio (+MMV007839/-MMV007839): -0.02277
  Inosine log2 ratio (+MMV007839/-MMV007839): 0.5137
  Isoleucine log2 ratio (+MMV007839/-MMV007839): 0.3056
  LD log2 ratio (+MMV007839/-MMV007839): 0.3825
  Lactate log2 ratio (+MMV007839/-MMV007839): 2.358
  Leucine log2 ratio (+MMV007839/-MMV007839): 0.1553
  Lysine log2 ratio (+MMV007839/-MMV007839): 1.68
  Malate log2 ratio (+MMV007839/-MMV007839): 0.1358
  Mannitol log2 ratio (+MMV007839/-MMV007839): 0.0108
  Methionine log2 ratio (+MMV007839/-MMV007839): 0.2615
  Myristic acid log2 ratio (+MMV007839/-MMV007839): 0.2261
  N-Acetyl-glutamate log2 ratio (+MMV007839/-MMV007839): -0.007377
  N-Carbamoyl-L-aspartate log2 ratio (+MMV007839/-MMV007839): -1.378
  NAD+ log2 ratio (+MMV007839/-MMV007839): 0.03204
  NADH log2 ratio (+MMV007839/-MMV007839): -1.36
  NADP+ log2 ratio (+MMV007839/-MMV007839): -0.2617
  Octoluse Bisphosphate log2 ratio (+MMV007839/-MMV007839): 1.912
  Ornithine log2 ratio (+MMV007839/-MMV007839): 0.2172
  Orotate log2 ratio (+MMV007839/-MMV007839): -1.216
  Orotidine 5-phosphate log2 ratio (+MMV007839/-MMV007839): -1.5
  Orotidine log2 ratio (+MMV007839/-MMV007839): -0.4366
  PAEF log2 ratio (+MMV007839/-MMV007839): -0.4364
  PAVH log2 ratio (+MMV007839/-MMV007839): -1.011
  PD log2 ratio (+MMV007839/-MMV007839): 0.2765
  PDAV log2 ratio (+MMV007839/-MMV007839): 0.344
  PE log2 ratio (+MMV007839/-MMV007839): 1.21
  PEE log2 ratio (+MMV007839/-MMV007839): 0.2418
  PHF log2 ratio (+MMV007839/-MMV007839): 1.069
  PPVQ log2 ratio (+MMV007839/-MMV007839): 0.02129
  PVNF log2 ratio (+MMV007839/-MMV007839): -0.3384
  PVQ log2 ratio (+MMV007839/-MMV007839): 0.8749
  PVQA log2 ratio (+MMV007839/-MMV007839): -0.7385
  Pantothenate log2 ratio (+MMV007839/-MMV007839): -0.01312
  Phenylalanine log2 ratio (+MMV007839/-MMV007839): 0.1979
  Phosphoenolpyruvate log2 ratio (+MMV007839/-MMV007839): 0.299
  Pipecolate log2 ratio (+MMV007839/-MMV007839): 0.4539
  Proline log2 ratio (+MMV007839/-MMV007839): 0.1646
  Pyridoxine log2 ratio (+MMV007839/-MMV007839): 0.1656
  Pyruvate log2 ratio (+MMV007839/-MMV007839): 1.42
  Ribose-5-phosphate log2 ratio (+MMV007839/-MMV007839): 0.9115
  S-Adenosyl-L-homocysteine log2 ratio (+MMV007839/-MMV007839): -0.1282
  SDGLA log2 ratio (+MMV007839/-MMV007839): -0.148
  SFGD log2 ratio (+MMV007839/-MMV007839): -0.0354
  Sedoheptoluse bisphosphate log2 ratio (+MMV007839/-MMV007839): 0.6095
  Sedoheptulose-1/7-phosphate log2 ratio (+MMV007839/-MMV007839): 0.1578
  Serine log2 ratio (+MMV007839/-MMV007839): 0.004434
  Succinate log2 ratio (+MMV007839/-MMV007839): 0.4975
  Succinate semialdehyde log2 ratio (+MMV007839/-MMV007839): -0.3802
  TNVK log2 ratio (+MMV007839/-MMV007839): -0.9736
  Threonine log2 ratio (+MMV007839/-MMV007839): 0.4202
  Tryptophan log2 ratio (+MMV007839/-MMV007839): 0.09509
  Tyrosine log2 ratio (+MMV007839/-MMV007839): 0.1697
  UDP log2 ratio (+MMV007839/-MMV007839): -0.1565
  UDP-N-acetyl-D-glucosamine log2 ratio (+MMV007839/-MMV007839): 0.0845
  UDP-glucose log2 ratio (+MMV007839/-MMV007839): -0.08513
  UMP log2 ratio (+MMV007839/-MMV007839): -0.3602
  Uracil log2 ratio (+MMV007839/-MMV007839): -0.4869
  Uric Acid log2 ratio (+MMV007839/-MMV007839): 0.02649
  VD log2 ratio (+MMV007839/-MMV007839): 1.818
  Valine log2 ratio (+MMV007839/-MMV007839): 0.1364
  Xanthine log2 ratio (+MMV007839/-MMV007839): 0.3309
  dADP log2 ratio (+MMV007839/-MMV007839): -0.3244
  dATP log2 ratio (+MMV007839/-MMV007839): 0.05147
  dCDP log2 ratio (+MMV007839/-MMV007839): 0.3024
  dGMP log2 ratio (+MMV007839/-MMV007839): 0.08489
  dTMP log2 ratio (+MMV007839/-MMV007839): -0.02247
  dTTP log2 ratio (+MMV007839/-MMV007839): 0.2046
  dUMP log2 ratio (+MMV007839/-MMV007839): 1.26
  myo-Inositol log2 ratio (+MMV007839/-MMV007839): -0.07002
  sn-Glycerol 3-phosphate log2 ratio (+MMV007839/-MMV007839): 1.379
  sn-glycero-3-Phospho-1-inositol log2 ratio (+MMV007839/-MMV007839): -0.128
Av 1hr, medRt 15.0954
  Hexose-phosphate log2 ratio (+MMV007839/-MMV007839): -0.2585
Av 1hr, medRt 16.8944
  6-Phospho-D-gluconate log2 ratio (+MMV007839/-MMV007839): -0.386
Av 1hr, medRt 17.0788
  Hexose-phosphate log2 ratio (+MMV007839/-MMV007839): -1.607
Av 1hr, medRt 17.4636
  6-Phospho-D-gluconate log2 ratio (+MMV007839/-MMV007839): -0.04985
Av 3hr
  1-3 (2-3)-diphopshateglycerate log2 ratio (+MMV007839/-MMV007839): 0.8355

Reference: publication PMC5298231, “The Malaria Parasite's Lactate Transporter PfFNT Is the Target of Antiplasmodial Compounds Identified in Whole Cell Phenotypic Screens” (PLoS Pathogens, 2017)
